Test results reported in patent US9067889B2, “Biphenylcarboxamides as ROCK kinase inhibitors” (Amakem NV, priority 2011, dated 2015).

Legend:
[1] = Stability assay in human plasma; assay type: in vitro ADME; details: 1 μM compound in human plasma, LC-MS/MS
Description: C.2.1. Stability Assay in Human and/or Rat Plasma
Compounds are incubated at a concentration of 1 μM in human plasma (or rat, mice, dog, monkey, minipig or rabbit). Samples are taken at fixed time points and the remnant of compound is determined by LC-MS/MS after protein precipitation.

[2] = Stability assay in rabbit aqueous humor; assay type: in vitro ADME; details: 1 μM compound in rabbit aqueous humor, LC-MS/MS
Description: C.2.2. Stability Assay in Rabbit Aqueous Humor
Compounds are incubated at a concentration of 1 μM in rabbit aqueous humor (AH). Samples are taken at fixed time points and the remnant of compound is determined by LC-MS/MS after protein precipitation.

**Q.** Which “t1/2(min) in human plasma” value [1] does the source give for `COC(=O)Cc1cccc(NC(=O)c2cccc(-c3cc(C(=O)Nc4ccncc4F)ccc3CN)c2)c1` [Compound 1] here?
**A.** <60 min

**Q.** What about the “t½ rabbit AH” value [2] of the same compound?
**A.** 58 min
